Source: ChEMBL document CHEMBL1157539, “Thousands of chemical starting points for antimalarial lead identification” (Nature, 2010)

Tested on: Plasmodium falciparum
Assay: GSK_TCMDC: Inhibition of Plasmodium falciparum 3D7 in whole erythrocytes, using parasite LDH activity as an index of growth.
Assay type: functional, organism-based
Settings: Plasmodium falciparum, 3D7

| SMILES | XC50 [nM] |
| --- | --- |
| O=[N+]([O-])c1ccc(Nc2nc(N/N=C/c3cccc(O)c3)nc(N3CCCC3)n2)cc1 | 1080 |
| c1ccc(C(OCCC2CCN(Cc3cccnc3)CC2)c2ccccc2)cc1 | 817 |
| CN(C)Cc1cccc(-c2ccc(Nc3nccc(NCC(O)c4ccccc4)n3)cc2)c1 (configuration not stated) | 136 |
| Clc1ccc(-c2[nH]c3ccccc3c2CN2CCC(N3CCCCC3)CC2)cc1 | 1060 |
| CN1CCN(c2ccc(Nc3nccc(-c4c(-c5cccc(NC(=O)c6c(F)cccc6F)c5)nn5ccccc45)n3)cc2)CC1 | 112 |
| Cc1cc(N[C@@H](CC(C)C)C(=O)NCc2cccc(F)c2)nc(NCCc2ccccc2)n1 | 1080 |
| COc1ccc(Nc2cc(C)nc(NCc3ccc4c(c3)OCO4)n2)cc1 | 766 |
| CCCN(CCC)S(=O)(=O)c1ccc(C(=O)N2CCC(C(=O)OCC)CC2)cc1 | 803 |
| CC(C)(CN)c1nc(-c2ccc(Br)c(O)c2)c(-c2ccncc2)[nH]1 | 965 |
| OC(CNCCc1ccccc1)Cn1c2ccc(Cl)cc2c2cc(Cl)ccc21 (configuration not stated) | 733 |
| O=C(Nc1ccc2c(c1)CN(Cc1ccc(N3CCCC3)o1)CCC2)c1cncs1 | 1570 |
| O=C(O)c1ccc(-c2cnc3ccc(NC4CCC(O)CC4)nn23)cc1 (configuration not stated) | 995 |
| CC(=O)Nc1nc(C)c(-c2csc(Nc3ccc(Cl)cc3)n2)s1 | 258 |
| CC1(C)NC(N)=NC(=N)N1OCCCNC(=O)c1ccc([N+](=O)[O-])cc1 | 3.2 |
| CC(=O)Nc1ncc(C(=O)Nc2cccc(-c3ccc(-c4nc5cc(F)ccc5[nH]4)cc3)c2)s1 | 622 |
| Cc1cccc2nc(-c3cccc(-c4ccc(NC(=O)NCc5cccc(F)c5)cc4)c3)[nH]c12 | 236 |
| Cc1cnc(Nc2ccccc2)nc1N[C@@H](CCCN)C(=O)Nc1ccccc1 | 807 |
| O=C(Nc1ccc(N2CCN(Cc3cccc(F)c3)CC2)cc1)c1cccs1 | 682 |
| COc1cc(Nc2nccc(N3CCC(NC(=O)C4COc5ccccc5O4)C3)n2)cc(OC)c1OC (configuration not stated) | 924 |
| O=C(Nc1ccc(Oc2ccccc2)cc1)N(Cc1ccc(-c2cccc(CN3CCNCC3)c2)cc1)C1CCN(Cc2ccccc2)CC1 | 881 |
| Cc1cccc2nc(-c3ccc(-c4ccc(CN5CCN(c6ccncc6)CC5)cc4)cc3)[nH]c12 | 163 |
| Oc1cccc2ccc(Nc3ccccn3)nc12 | 752 |
| O=C(Nc1ccc(Cn2ncc(N3CCCNCC3)c(Cl)c2=O)cc1)Nc1cc(F)cc(C(F)(F)F)c1 | 767 |
| COc1ccccc1C1CCN(C2CCC(NC(=O)/C=C/c3ccc(C(F)(F)F)cc3)CC2)CC1 (configuration not stated) | 1160 |
| CC1CCC2(CC1)NC(N)=NC(=N)N2OCCCCCCCCO (configuration not stated) | 147 |

| SMILES | XC50 [nM] |
| --- | --- |
| CCOc1cc(C(=O)Nc2ccccc2N2CCN(S(C)(=O)=O)CC2)cc(OCC)c1OCC | 653 |
| Cn1cncc1C(=O)Nc1ccc(-c2cccc(-c3nc4cc(C(F)(F)F)ccc4[nH]3)c2)cc1 | 858 |
| CCCCCCc1cc2cc(-c3csc(C=Cc4ccccc4)n3)c(=O)oc2cc1O | 970 |
| CCn1c(=O)c(C(=O)Nc2cc(Cl)c(OC)cc2OC)nc2ccccc21 | 244 |
| CCOC(=O)c1cn(CC)c2cc(F)c(OC3CC4CCC3(C)C4(C)C)cc2c1=O (configuration not stated) | 928 |
| CO/C(=C\C=C\c1cc2cc(Cl)c(Cl)cc2[nH]1)C(=O)Nc1ccc(NCCN(C)C)nc1 | 765 |
| COc1ccc2nccc([C@@H](O)CN3CCC(NC(=O)/C=C/c4cc([N+](=O)[O-])ccc4OC)CC3)c2c1 | 258 |
| CCc1cn2c3c(cc(C(=O)N[C@@H](Cc4ccccc4)[C@H](O)CNCc4ccccc4C)cc13)N(C)S(=O)(=O)CC2 | 271 |
| N#Cc1ccc(-c2ccc(OCC(O)CN3CCCN(C(=O)C(c4ccc5c(c4)OCO5)N4CCN(C/C=C/c5ccccc5)CC4)CC3)cc2)cc1 (configuration not stated) | 654 |
| COc1cc(OC)cc(C(=O)Nc2nc(-c3ccccn3)cs2)c1 | 561 |
| O=C(NCc1cccc2ccccc12)C1CCCN(C(=O)c2ccc(O)c(-c3ccc(Cl)c(Cl)c3)c2)C1 (configuration not stated) | 1030 |
| C[C@H](Cc1ccc(S(=O)(=O)c2ccc(C[C@@H](C)NC[C@H](O)c3cccc(Cl)c3)cc2)cc1)NC[C@H](O)c1cccc(Cl)c1 | 258 |
| COc1ccc(N2CCN(CCc3ccc(NC(=O)c4ccc([N+](=O)[O-])cc4)cc3)CC2)c(OC)c1 | 1170 |
| Oc1ccc(-c2nc(-c3ccc4oc5ccc(-c6[nH]c(-c7ccc(O)cc7)nc6-c6ccccc6)cc5c4c3)c(-c3ccccc3)[nH]2)cc1 | 1110 |
| Cc1ccc(NC(=O)Nc2ccc(Cl)cc2)cc1-c1cccc(C(=O)Nc2ccc(F)cc2)c1 | 735 |
| CC(=O)NCCNc1cc(N2CCc3ncnc(Nc4ccc(OCc5c(F)cccc5F)c(Cl)c4)c3C2)ncn1 | 160 |
| Cc1cc(C(=O)Nc2ccc3c(ccn3C3CCCN(Cc4ccc(C(F)(F)F)cc4F)CC3)c2)no1 (configuration not stated) | 765 |
| CCOC(=O)c1cc(C(=O)OC)c2ccccn12 | 223 |
| CCCCc1cc(O)c2c(c1)OC(C)(C)C=C2C1=CCN(Cc2ccccc2)CC1 | 247 |
| CCn1c(Sc2ccc(C#N)c([N+](=O)[O-])c2)nnc1-c1ccc(Cl)cc1 | 552 |
| CS(=O)(=O)N(c1cccc(F)c1)c1cc(C(=O)N[C@@H](Cc2ccccc2)[C@H](O)CNCc2cccc(C(F)(F)F)c2)cc(N2CCCC2=O)c1 | 910 |
| NC1CCN(c2nc(NCCc3ccc(O)cc3)nc(NCc3ccccc3-c3ccccc3)n2)CC1 | 822 |
| Cc1nc(N)nc(N)c1-c1cc(Cl)c(N)c(Cl)c1 | 805 |
| COc1ccc2[nH]ccc(=NN=Cc3ccccc3F)c2c1 | 620 |
| c1cn(-c2ccc(CNc3nccc(Nc4ccc(OCCN5CCOCC5)cc4)n3)cc2)cn1 | 878 |

| SMILES | XC50 [nM] |
| --- | --- |
| Cc1cccc2nc(-c3cccc(-c4cccc(NC(=O)Cc5c[nH]cn5)c4)c3)[nH]c12 | 675 |
| COc1ccc(CN2CCC(NCc3cccc([N+](=O)[O-])c3)CC2)cc1 | 910 |
| CCc1ccc2c(c1O)CCN(C)C2Cc1ccccc1Cl (configuration not stated) | 251 |
| CN(C)S(=O)(=O)c1ccc(N2CCN(CCC3(c4cccc(F)c4)CCN(C(=O)C(C)(C)C)CC3)CC2)c2nonc12 | 697 |
| Fc1cc(CN2CCCC2)ccc1OCCCN1CCN(c2cccc(Cl)c2Cl)CC1 | 1040 |
| NOCCCOc1ccccc1 | 321 |
| CC(C)c1ccc(NC(=O)NCCCC2CCCN(CCCCCNC(=O)/C=C/c3ccc(Cl)c(Cl)c3)C2)cc1 (configuration not stated) | 957 |
| CN1CCC(C(=O)Nc2cccc(-c3cccc(-c4nc5cc(F)ccc5[nH]4)c3)c2)CC1 | 695 |
| Cc1ccc2[nH]c(-c3ccccc3N)cc2c1 | 923 |
| Oc1ccc2ccccc2c1CNCC1CCCCC1 | 667 |
| OC(c1ccc(Cl)cc1)(c1ccc(Cl)cc1)C(c1ccc(Cl)cc1)n1ccnc1 (configuration not stated) | 863 |
| Cc1cccc(CN2CCCN(Cc3ccc(C(=O)Nc4ccc(Cl)cc4)cc3)CC2)c1 | 596 |
| COc1ccc(NC(=O)Nc2cccc(-c3cccc(-c4nc5ccccc5[nH]4)c3)c2)cc1 | 309 |
| Cc1ccc(C(C)C)c(Oc2cnc(NC(CO)c3ccccc3)nc2N)c1 (configuration not stated) | 962 |
| Cn1ccnc1-c1nc2ccccn2c1NCC(=O)Nc1ccccc1N1CCCCC1 | 980 |
| COc1c(CN2CCOCC2)cccc1-c1cc2c(-c3ccc(C(=O)O)c(C(C)C)c3)ccnc2[nH]1 | 742 |
| c1cc(-c2ccc(CNCCc3ccncc3)cc2)cc(-c2nc3ccccc3[nH]2)c1 | 139 |
| O=C(Nc1ccc(S(=O)(=O)N2CCCCC2)cc1)c1cc(-c2ccccc2O)n[nH]1 | 846 |
| O=C(NCC1CC1)C1CCN(C(c2ccccc2)c2cc(F)cc(F)c2)CC1 (configuration not stated) | 380 |
| Cc1cccc2nc(-c3ccc(-c4cccc(NC(=O)C(C)CN5CCN(C)CC5)c4)s3)[nH]c12 (configuration not stated) | 748 |
| C1=CN(Cc2ccccc2)C=CC1=C1C=Nc2ccccc21 | 756 |
| O=C(NCCOc1ccccc1)[C@H](Cc1ccccc1)Nc1ccnc(NCC2CCCCC2)n1 | 1200 |
| CCC1(C)N=C(N)N=C(N)N1c1ccc(Cl)cc1 (configuration not stated) | 159 |
| CCCCCCCN1CCC(CC(=O)Nc2ccnc3ccc(OC)cc23)CC1 | 722 |
| OC(CNc1ccnc(Nc2cccc(Cl)c2)n1)c1ccccc1C(F)(F)F (configuration not stated) | 902 |

| SMILES | XC50 [nM] |
| --- | --- |
| CC(CN(C)C)Oc1ccc2nc(-c3cccc(OCc4ccccc4)c3)[nH]c2c1C#N (configuration not stated) | 407 |
| Cc1cnc(CN(Cc2ccc(-c3ccc(CNCCc4ccc(S(C)(=O)=O)cc4)cn3)cc2)C(=O)c2ccc([N+](=O)[O-])c(C)c2)cn1 | 919 |
| Cc1c(F)cc(C(=O)NC2CC2)cc1-c1ccc2c(cnn2S(=O)(=O)c2ccc(Cl)s2)c1 | 391 |
| O=C(Nc1cccc(-c2ccc(NCCCN3CCCC3)nc2)c1)c1ccccc1 | 865 |
| Fc1cc(Cl)ccc1Nc1ccnc2cc(-c3ccc(CN4CCCCC4)o3)ccc12 | 337 |
| COc1ccc(Nc2nc(C)cc(NCc3ccc(-c4c(C)noc4C)cc3)n2)cc1 | 844 |
| O=C(NCCc1ccccc1F)c1ccc(N2CCN(c3ccncc3)CC2)cn1 | 1080 |
| COc1cc(C)nc2ccc(NC(=O)Nc3ccc([N+](=O)[O-])cc3C)cc12 | 602 |
| O=C(Nc1ccc(C(=O)OCC2CCCN3CCCCC23)cc1)c1ccc([N+](=O)[O-])cc1 (configuration not stated) | 716 |
| O=C(Cc1cccc2ccccc12)N1CCc2cc3nccc(N4CCN5CCC[C@H]5C4)c3cc21 | 777 |
| N#CC(c1ccc(Br)cc1)c1ccc2c(C(F)(F)F)cc(C(F)(F)F)nc2n1 (configuration not stated) | 440 |
| CCC[C@@H]([C@@H](CC1CCCCC1)C(=O)N[C@@H](CCCCNS(C)(=O)=O)C(=O)Nc1nccs1)N(O)C=O | 81.1 |
| CC1(C)NC(N)=NC(=N)N1OCc1nc(N)nc(Nc2ccccc2)n1 | 274 |
| COc1cc(CNCCCCCCNCc2cc(OC)cc3ccccc23)c2ccccc2c1 | 590 |
| O=C(Nc1ccc2c(c1)CCC2)N[C@H]1CCN(Cc2ccc(OCCCN3CCCCC3)cc2)C1 | 864 |
| O=C(c1cccc(Br)c1)N1CCN(c2ccc([N+](=O)[O-])c(NC3CC3)c2)CC1 | 936 |
| CSc1sc(NC(=O)Nc2cccc(C(F)(F)F)c2)cc1C#N | 912 |
| COc1ccc(-c2ccc(NC(=O)c3ccccc3)cc2)cc1CN1CCCN(C)CC1 | 905 |
| C=C(C)COc1ccc(-c2n[nH]c(C(F)(F)F)c2-c2ccccc2OC)c(O)c1 | 781 |
| O=C(Nc1ccc(Cn2ncc(N3CCCNCC3)c(Cl)c2=O)cc1)Nc1ccc(F)cc1[N+](=O)[O-] | 1100 |
| COc1ccc2nccc([C@@H](O)CN3CCC(NCc4cc5ccccc5nn4)CC3)c2c1 | 1200 |
| COc1ccc(-c2ccc(NC(=O)c3cccc(Cl)c3)c(F)c2)cc1CNC(C)C | 895 |
